Molecular target: T1, MurG (Cereibacter sphaeroides, UniProt Q3J4M2)
T1 construct: full-length murG in pET28b(+), N-terminal His tag cut with thrombin, E. coli BL21(DE3); Triton X-100 extraction; start encoded by primer MGRPLLL
T1 sequence (Q3J4M2 1-364): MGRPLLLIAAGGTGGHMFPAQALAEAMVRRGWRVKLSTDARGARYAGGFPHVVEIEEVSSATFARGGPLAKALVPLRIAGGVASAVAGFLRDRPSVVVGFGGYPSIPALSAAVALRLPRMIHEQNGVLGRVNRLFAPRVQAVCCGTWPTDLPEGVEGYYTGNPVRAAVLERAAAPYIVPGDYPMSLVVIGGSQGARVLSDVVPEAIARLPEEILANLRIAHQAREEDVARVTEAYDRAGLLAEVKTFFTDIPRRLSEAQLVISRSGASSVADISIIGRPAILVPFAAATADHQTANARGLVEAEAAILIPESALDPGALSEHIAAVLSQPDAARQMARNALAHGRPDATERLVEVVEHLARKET
Assay: liposome-pelleting assay, SDS-PAGE densitometry
Assay type: binding
Conditions: 6 uM MurG, 4 mM phospholipid, 0.5 uM BSA, 20 mM Tris pH 8.0, room temperature

Compound | % pelleted MurG (10 mol% PGL in PC liposomes (mixed membrane)) [%] | % pelleted MurG (10 mol% CL in PC liposomes (mixed membrane)) [%]
CCCCCCCC/C=C\CCCCCCCC(=O)OC[C@H](COP(=O)(O)OCC(O)CO)OC(=O)CCCCCCC/C=C\CCCCCCCC (mixture of isomers) [PGL, 1,2-di-(9Z-octadecenoyl)-sn-glycero-D-phospho-(1′-rac-glycerol)] | 92 | 
CCCCCCCC/C=C\CCCCCCCC(=O)OC[C@H](COP(=O)(O)OCC(O)COP(=O)(O)OC[C@@H](COC(=O)CCCCCCC/C=C\CCCCCCCC)OC(=O)CCCCCCC/C=C\CCCCCCCC)OC(=O)CCCCCCC/C=C\CCCCCCCC (some centres unmarked) [CL, 1,1′,2,2′-tetra-(9Z-octadecenoyl) cardiolipin] |  | 92

From publication PMC6381277, “Cardiolipin Alters Rhodobacter sphaeroides Cell Shape by Affecting Peptidoglycan Precursor Biosynthesis” (mBio, 2019)
